From US12447153B2, “HER2 mutation inhibitors” (Array BioPharma Inc., priority 2021, dated 2025)

How the values were obtained:
[1] = target: EGFR (Homo sapiens (Human), UniProt P00533); assay: ErbB Enzyme Assay (HTRF KinEASE-TK), Assay 3; assay type: biochemical
Method: The kinases were incubated with 250 nM TK-substrate biotin (CisBio, part of cat #62TKOPEC) at 1 mM ATP along with test compounds in a buffer consisting of 25 mM HEPES, pH 7.4, 10 mM MgCl2, 0.01% Triton X-100, and 2% DMSO in a volume of 8 μL. […] After 30-minute incubation at 22° C., the reaction was quenched by adding 8 μL of quench solution containing 62.5 nM Sa-XL665 and 0.25×TK-Ab-Cryptate in HTRF detection buffer (all from CisBio, part of cat #62TKOPEC). […] A 4-parameter logistic curve was fit to the POC values as a function of the concentration of compound, and the IC50 value was the point where the best-fit curve crossed 50 POC.

[2] = target: ErbB2 with Exon 20 YVMA insertion (HER2-YVMA) (Homo sapiens (Human), UniProt P04626, INS775YVMA); assay: Cellular Phosphorylation Assay, Assay 4 (constitutive ErbB2 phosphorylation, NIH 3T3 cells); assay type: cell-based
Sequence of ErbB2 with Exon 20 YVMA insertion (HER2-YVMA) (P04626 other isoform, or with tags, fused parts or gaps ins YVMA behind 775): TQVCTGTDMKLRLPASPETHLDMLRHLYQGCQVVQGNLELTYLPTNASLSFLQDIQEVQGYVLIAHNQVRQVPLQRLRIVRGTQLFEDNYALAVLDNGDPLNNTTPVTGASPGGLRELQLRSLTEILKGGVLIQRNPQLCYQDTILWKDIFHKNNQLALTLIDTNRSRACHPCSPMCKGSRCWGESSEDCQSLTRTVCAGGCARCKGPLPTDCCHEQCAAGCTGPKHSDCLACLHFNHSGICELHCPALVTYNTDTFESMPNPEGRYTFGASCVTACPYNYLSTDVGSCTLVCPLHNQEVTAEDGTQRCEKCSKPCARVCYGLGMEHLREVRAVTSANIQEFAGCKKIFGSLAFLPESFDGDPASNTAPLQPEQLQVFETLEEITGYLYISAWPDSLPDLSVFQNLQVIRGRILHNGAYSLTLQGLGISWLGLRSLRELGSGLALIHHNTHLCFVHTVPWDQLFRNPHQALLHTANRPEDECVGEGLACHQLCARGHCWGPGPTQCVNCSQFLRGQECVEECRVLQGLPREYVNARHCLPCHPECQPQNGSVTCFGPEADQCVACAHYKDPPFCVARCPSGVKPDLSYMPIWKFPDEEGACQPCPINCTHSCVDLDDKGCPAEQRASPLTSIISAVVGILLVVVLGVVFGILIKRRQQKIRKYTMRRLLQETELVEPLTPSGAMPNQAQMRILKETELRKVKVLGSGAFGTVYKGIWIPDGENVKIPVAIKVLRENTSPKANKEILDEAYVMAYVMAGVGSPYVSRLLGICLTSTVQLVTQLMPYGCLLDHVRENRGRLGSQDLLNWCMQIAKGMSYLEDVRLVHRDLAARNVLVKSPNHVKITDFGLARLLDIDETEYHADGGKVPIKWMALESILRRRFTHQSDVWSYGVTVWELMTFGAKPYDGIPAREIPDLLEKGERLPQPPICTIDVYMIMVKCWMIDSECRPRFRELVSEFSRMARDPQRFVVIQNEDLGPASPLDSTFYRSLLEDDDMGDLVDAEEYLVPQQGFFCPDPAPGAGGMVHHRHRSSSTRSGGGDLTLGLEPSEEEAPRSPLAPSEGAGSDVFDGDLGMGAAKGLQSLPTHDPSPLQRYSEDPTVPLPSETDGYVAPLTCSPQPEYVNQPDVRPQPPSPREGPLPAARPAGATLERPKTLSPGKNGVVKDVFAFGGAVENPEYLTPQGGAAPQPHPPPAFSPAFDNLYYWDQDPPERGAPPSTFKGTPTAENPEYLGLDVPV
Method: (§1) NIH 3T3 cells were engineered to express ErbB2 with Exon 20 YVMA insertion (HER2-YVMA (SEQ ID NO: 2); Assay 4) or EGFR wild type (EGFR WT; Assay 5) with constructs obtained from GenScript and grown in DMEM supplemented with 10% fetal bovine serum and 15 μg/ml blasticidin. […] Serially diluted compounds were added to the plates for 1 hour at 37° C./5% CO2. EGFR WT cells were stimulated with 100 ng/ml rEGF for an additional 10 minutes at 37° C./5% CO2.
(§2) After compound incubation, medium was removed from the cells, which were then fixed in 3.7% formaldehyde in PBS at room temperature for 20 minutes. Following a wash with PBS, cells were permeabilized with 100% methanol at room temperature for 10 minutes. Cells were then washed with PBS/0.05% Tween-20 and blocked with Odyssey blocking buffer (LI-COR Biosciences) for at least 1 hour at room temperature. Antibodies to phosphorylated ErbB2 (Y1196, Cell Signaling #6942) or phosphorylated EGFR (Y1068, Cell Signaling #3777) and GAPDH (Millipore #MAB374) were added to the cells in blocking buffer containing 0.05% azide and incubated overnight at 4° C. After washing with PBS/0.05% Tween-20, the cells were incubated with fluorescently labeled secondary anti-rabbit antibody (LiCOR, IRDye 800CW #926-32211) and anti-mouse antibody (Molecular Probes, Alexa Fluor 680 #A21058) for 1 hour at room temperature in the dark. Cells were then washed and analyzed for fluorescence at both wavelengths using the Odyssey Infrared Imaging System (LI-COR Biosciences). Phosphorylated ErbB2 and EGFR signal was normalized to GAPDH signal to generate curves and calculate IC50 values.

[3] = target: ErbB2 WT (Homo sapiens (Human), UniProt P04626); assay: ErbB Enzyme Assay (HTRF KinEASE-TK), Assay 2; assay type: biochemical
Sequence of ErbB2 WT (P04626 23-1255): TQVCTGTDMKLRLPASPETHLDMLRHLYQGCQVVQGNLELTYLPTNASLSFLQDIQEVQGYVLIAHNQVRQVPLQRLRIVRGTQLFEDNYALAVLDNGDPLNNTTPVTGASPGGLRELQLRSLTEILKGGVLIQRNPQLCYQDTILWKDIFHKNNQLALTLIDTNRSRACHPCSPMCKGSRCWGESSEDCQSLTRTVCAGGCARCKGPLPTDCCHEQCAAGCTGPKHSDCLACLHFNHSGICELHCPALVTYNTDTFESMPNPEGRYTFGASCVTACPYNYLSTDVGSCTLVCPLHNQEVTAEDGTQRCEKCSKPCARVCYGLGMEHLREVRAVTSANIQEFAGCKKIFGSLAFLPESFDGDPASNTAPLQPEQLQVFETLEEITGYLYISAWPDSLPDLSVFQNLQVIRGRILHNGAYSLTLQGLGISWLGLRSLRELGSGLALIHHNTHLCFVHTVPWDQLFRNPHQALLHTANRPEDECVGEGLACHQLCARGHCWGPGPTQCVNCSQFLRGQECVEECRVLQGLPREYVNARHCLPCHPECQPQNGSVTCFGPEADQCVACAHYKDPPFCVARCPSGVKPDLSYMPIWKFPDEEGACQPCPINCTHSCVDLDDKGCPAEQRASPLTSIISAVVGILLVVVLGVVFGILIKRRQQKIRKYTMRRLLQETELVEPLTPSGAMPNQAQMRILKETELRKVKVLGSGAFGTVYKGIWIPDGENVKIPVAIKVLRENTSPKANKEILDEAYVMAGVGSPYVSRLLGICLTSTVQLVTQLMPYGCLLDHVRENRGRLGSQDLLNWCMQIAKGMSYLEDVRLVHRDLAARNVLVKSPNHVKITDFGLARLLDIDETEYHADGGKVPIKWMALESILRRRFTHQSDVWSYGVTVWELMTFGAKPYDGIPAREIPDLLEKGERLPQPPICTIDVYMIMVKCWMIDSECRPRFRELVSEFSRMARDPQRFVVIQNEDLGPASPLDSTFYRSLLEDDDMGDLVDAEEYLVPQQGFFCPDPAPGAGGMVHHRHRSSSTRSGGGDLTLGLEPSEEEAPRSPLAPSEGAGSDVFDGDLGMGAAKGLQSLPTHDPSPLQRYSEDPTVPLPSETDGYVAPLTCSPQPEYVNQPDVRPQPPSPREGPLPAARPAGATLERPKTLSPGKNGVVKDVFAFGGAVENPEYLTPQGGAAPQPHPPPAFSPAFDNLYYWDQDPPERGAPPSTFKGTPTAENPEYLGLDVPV
Method: The kinases were incubated with 250 nM TK-substrate biotin (CisBio, part of cat #62TKOPEC) at 1 mM ATP along with test compounds in a buffer consisting of 25 mM HEPES, pH 7.4, 10 mM MgCl2, 0.01% Triton X-100, and 2% DMSO in a volume of 8 μL. […] After 30-minute incubation at 22° C., the reaction was quenched by adding 8 μL of quench solution containing 62.5 nM Sa-XL665 and 0.25×TK-Ab-Cryptate in HTRF detection buffer (all from CisBio, part of cat #62TKOPEC).

[4] = target: EGFR wild type (EGFR WT) (Homo sapiens (Human), UniProt P00533); assay: Cellular Phosphorylation Assay, Assay 5 (EGF-stimulated EGFR phosphorylation, NIH 3T3 cells); assay type: cell-based
Sequence of EGFR wild type (EGFR WT) (P00533 25-1210): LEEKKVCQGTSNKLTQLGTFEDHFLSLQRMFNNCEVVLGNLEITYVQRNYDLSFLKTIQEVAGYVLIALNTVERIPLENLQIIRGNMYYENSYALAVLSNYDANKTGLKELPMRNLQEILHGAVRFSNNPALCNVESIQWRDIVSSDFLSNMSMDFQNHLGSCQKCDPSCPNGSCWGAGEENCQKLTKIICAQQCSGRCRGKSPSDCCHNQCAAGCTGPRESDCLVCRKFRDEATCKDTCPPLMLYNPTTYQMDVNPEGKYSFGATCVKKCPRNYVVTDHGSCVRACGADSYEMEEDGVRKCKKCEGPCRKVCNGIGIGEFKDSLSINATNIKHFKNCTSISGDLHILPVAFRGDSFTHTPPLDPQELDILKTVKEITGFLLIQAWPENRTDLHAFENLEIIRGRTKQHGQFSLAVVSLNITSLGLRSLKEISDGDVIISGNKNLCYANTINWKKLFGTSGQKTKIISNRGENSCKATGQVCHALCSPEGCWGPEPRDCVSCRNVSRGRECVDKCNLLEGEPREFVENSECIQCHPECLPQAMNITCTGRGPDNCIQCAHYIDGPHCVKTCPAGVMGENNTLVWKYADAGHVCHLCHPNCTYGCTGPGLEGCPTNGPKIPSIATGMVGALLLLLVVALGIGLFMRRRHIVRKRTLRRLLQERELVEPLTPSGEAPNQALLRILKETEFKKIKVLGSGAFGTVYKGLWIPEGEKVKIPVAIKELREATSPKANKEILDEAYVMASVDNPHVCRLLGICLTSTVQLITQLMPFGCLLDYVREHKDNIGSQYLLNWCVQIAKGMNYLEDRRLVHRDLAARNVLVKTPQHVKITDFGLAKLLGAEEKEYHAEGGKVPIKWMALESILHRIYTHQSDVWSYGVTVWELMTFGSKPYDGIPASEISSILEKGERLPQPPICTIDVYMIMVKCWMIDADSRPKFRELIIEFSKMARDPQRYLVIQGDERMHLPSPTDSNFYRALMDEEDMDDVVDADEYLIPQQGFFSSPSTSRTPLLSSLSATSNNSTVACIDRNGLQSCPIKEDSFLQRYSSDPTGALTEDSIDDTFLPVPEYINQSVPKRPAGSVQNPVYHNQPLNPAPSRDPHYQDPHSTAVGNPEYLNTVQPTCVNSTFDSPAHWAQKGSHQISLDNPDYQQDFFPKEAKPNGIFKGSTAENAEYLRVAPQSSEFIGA
Method: as §1, §2

[5] = EGF-stimulated EGFR WT phosphorylation
[6] = cellular ErbB2 YVMA phosphorylation
[7] = cellular EGFR WT phosphorylation, EGF-stimulated

Sequence of EGFR (P00533 25-1210): as above

| SMILES | IC50 ([1]; EGFR enzyme) [nM] | IC50 ([2]; ErbB2 YVMA phosphorylation) [nM] | IC50 ([3]; ErbB2 WT enzyme) [nM] | IC50 [4, 5] [nM] | IC50 ([1]; EGFR enzyme assay) [nM] | IC50 [2, 6] [nM] | IC50 ([3]; ErbB2 WT enzyme assay) [nM] | IC50 [4, 7] [nM] |
| --- | --- | --- | --- | --- | --- | --- | --- | --- |
| C=CC(=O)N1CCC[C@@H](c2ccc3ncnc(Nc4cc(C)c(Oc5ccc6c(c5)ncn6C)cc4F)c3n2)CC1 (racemic) [Example 135, rac-(R)-1-(4-(4-((2-fluoro-5-methyl-4-((1-methyl-1H-benzo[d]imidazol-5-yl)oxy)phenyl)amino)pyrido[3,2-d]pyrimidin-6-yl)azepan-1-yl)prop-2-en-1-one] | ≥ 10000 | 44.5 | 121 | ≥ 5000 |  |  |  |  |
| C=CC(=O)N1C[C@H]2CC[C@@H]1C[C@@H]2c1ccc2ncnc(Nc3ccc(Oc4cnc5c(c4)ncn5C)c(C)c3F)c2n1 [Example 422] |  |  |  |  | 4010 | 51.7 | 157 | ≥ 5000 |
| C=CC(=O)N1CCCCC(c2ccc3ncnc(Nc4ccc(Oc5ccn6ncnc6c5)c(C)c4F)c3n2)C1 (stereo not drawn) [Example 377] |  |  |  |  | 187 | 16.3 | 13 | 426 |
| C=CC(=O)N1CC(Cc2ccc3ncnc(Nc4ccc(Oc5ccn6ncnc6c5)c(C)c4F)c3n2)C1 [Example 298] |  |  |  |  | 255 | 29.9 | 36.5 | 902 |
| C=CC(=O)N1C[C@@H]2CC[C@H]1CN2c1ccc2ncnc(Nc3ccc(Oc4cnc5c(c4)ncn5C)c(C)c3F)c2n1 [Example 320] |  |  |  |  | 436 | 9.4 | 45.6 | 78.3 |
| C=CC(=O)N1CCN(c2ccc3ncnc(Nc4cc(C)c(Oc5ccn6ncnc6c5)cc4F)c3n2)C[C@@H]1C1CC1 [Example 284] |  |  |  |  | ≥ 10000 | 67.9 | 24.9 | ≥ 5000 |
| C=CC(=O)N1CC[C@@H]2C[C@H]1CN2c1ccc2ncnc(Nc3ccc(Oc4cnc5c(c4)ncn5C)c(C)c3F)c2n1 [Example 317] |  |  |  |  | 268 | 6.4 | 44 | 117 |
| C=CC(=O)N1CCN(c2ccc3ncnc(Nc4ccc(Oc5cc(F)c6c(c5)ncn6C)c(C)c4)c3n2)CC12CC2 [Example 281] |  |  |  |  | 102 | 10.9 | 10.4 | 129 |
| C=CC(=O)N1CCN(c2ccc3ncnc(Nc4ccc(Oc5ccn6ncnc6c5)c(Cl)c4F)c3n2)CC1(C)C [Example 87, 1-(4-(4-((4-([1,2,4]triazolo[1,5-a]pyridin-7-yloxy)-3-chloro-2-fluorophenyl)amino)pyrido[3,2-d]pyrimidin-6-yl)-2,2-dimethylpiperazin-1-yl)prop-2-en-1-one] | 463 | 8.8 | 7.5 | 178 |  |  |  |  |
| C=CC(=O)N1CCC(Oc2ccc3ncnc(Nc4ccc(Oc5cnn6c(C)cnc6c5)c(Cl)c4F)c3n2)CC1 [Example 53, 1-(4-((4-((3-chloro-2-fluoro-4-((3-methylimidazo[1,2-b]pyridazin-7-yl)oxy)phenyl)amino)pyrido[3,2-d]pyrimidin-6-yl)oxy)piperidin-1-yl)prop-2-en-1-one] | 1450 | 41.1 | 99.1 | 1240 |  |  |  |  |
| C=CC(=O)N1C[C@H]2CC[C@@H]1C[C@H]2c1ccc2ncnc(Nc3ccc(Oc4cnc5c(c4)ncn5C)c(C)c3F)c2n1 [Example 423] |  |  |  |  | 2550 | 70.8 | 125 | ≥ 5000 |
| C=CC(=O)N1CCN(c2nc3c(Nc4ccc(Oc5ccc6cn(C)nc6c5)c(C)c4)ncnc3cc2OC)CC1 [Example 158, 1-(4-(7-methoxy-4-((3-methyl-4-((2-methyl-2H-indazol-6-yl)oxy)phenyl)amino)pyrido[3,2-d]pyrimidin-6-yl)piperazin-1-yl)prop-2-en-1-one] | 321 | 16.5 | 39.1 | 366 |  |  |  |  |
| C=CC(=O)N1CC(Sc2ccc3ncnc(Nc4ccc(Oc5ccc6c(c5)ncn6C)c(C)c4F)c3n2)C1 [Example 61, 1-(3-((4-((2-fluoro-3-methyl-4-((1-methyl-1H-benzo[d]imidazol-5-yl)oxy)phenyl)amino)pyrido[3,2-d]pyrimidin-6-yl)thio)azetidin-1-yl)prop-2-en-1-one] | 283 | 34.4 | 16.3 | 976 |  |  |  |  |
| C=CC(=O)N1CC2CC(C1)N2c1ccc2ncnc(Nc3cc(C)c(Oc4ccn5ncnc5c4)cc3F)c2n1 [Example 336] |  |  |  |  | 5700 | 50.5 | 203 | 4880 |
| C=CC(=O)N1CCN(c2ccc3ncnc(Nc4cc(F)c(Oc5ccn6ncnc6c5)cc4F)c3n2)CC1(C)C [Example 453] |  |  |  |  | ≥ 10000 | 56.3 | 147 | ≥ 5000 |
| C=CC(=O)N1[C@H](C)CN(c2ccc3ncnc(Nc4ccc(Oc5ccc6c(c5)ncn6C)c(C)c4F)c3n2)C[C@@H]1C [Example 115, 1-((2S,6R)-4-(4-((2-fluoro-3-methyl-4-((1-methyl-1H-benzo[d]imidazol-5-yl)oxy)phenyl)amino)pyrido[3,2-d]pyrimidin-6-yl)-2,6-dimethylpiperazin-1-yl)prop-2-en-1-one] | ≥ 10000 | 82.8 | 55.4 | ≥ 5000 |  |  |  |  |
| C=CC(=O)N1CCC12CN(c1ccc3ncnc(Nc4ccc(Oc5ccn6ncnc6c5)c(Cl)c4F)c3n1)C2 [Example 360] |  |  |  |  | 121 | 4.1 | 8.8 | 178 |
| C=CC(=O)N1C[C@@H]2C[C@H]1CN2c1ccc2ncnc(Nc3ccc(Oc4ccn5ncnc5c4)c(C)c3F)c2n1 [Example 95, 1-((1S,4S)-5-(4-((4-([1,2,4]triazolo[1,5-a]pyridin-7-yloxy)-2-fluoro-3-methylphenyl)amino)pyrido[3,2-d]pyrimidin-6-yl)-2,5-diazabicyclo[2.2.1]heptan-2-yl)prop-2-en-1-one] | 378 | 5 | 38 | 49.5 |  |  |  |  |
| C=CC(=O)N1C[C@@H]2C[C@H](c3ccc4ncnc(Nc5ccc(Oc6ccn7ncnc7c6)c(C)c5F)c4n3)C[C@H]1C2 [Example 391] |  |  |  |  | 368 | 19.8 | 23.9 | 238 |
| CC#CC(=O)N1[C@@H]2CC[C@H]1C[C@@H](c1ccc3ncnc(Nc4cc(C)c(Oc5ccn6ncnc6c5)cc4F)c3n1)C2 [Example 208, 1-((1R,3r,5S)-3-(4-((4-([1,2,4]triazolo[1,5-a]pyridin-7-yloxy)-2-fluoro-5-methylphenyl)amino)pyrido[3,2-d]pyrimidin-6-yl)-8-azabicyclo[3.2.1]octan-8-yl)but-2-yn-1-one] | ≥ 10000 | 328 | 172 | ≥ 5000 |  |  |  |  |
| CC#CC(=O)N1C[C@@H]2C[C@H]1CN2c1ccc2ncnc(Nc3ccc(Oc4ccn5ncnc5c4)c(Cl)c3F)c2n1 [Example 316] |  |  |  |  | 1970 | 61.6 | 23.1 | 1450 |
| C=CC(=O)N1CCCC(c2ccc3ncnc(Nc4ccc(Oc5ccn6ncnc6c5)c(C)c4F)c3n2)C1 (stereo not drawn) [Example 198, 1-(3-(4-((4-([1,2,4]triazolo[1,5-a]pyridin-7-yloxy)-2-fluoro-3-methylphenyl)amino)pyrido[3,2-d]pyrimidin-6-yl)piperidin-1-yl)prop-2-en-1-one] | 342 | 17 | 24.2 | 809 |  |  |  |  |
| C=CC(=O)N1CCN(c2ccc3ncnc(Nc4cc(C)c(Oc5ccn6ncnc6c5)cc4F)c3n2)C[C@H]1COC [Example 347] |  |  |  |  | 772 | 8.2 | 38 | 380 |
| C=CC(=O)N1[C@@H](C)CC(c2ccc3ncnc(Nc4ccc(Oc5ccc6c(c5)ncn6C)c(C)c4F)c3n2)C[C@@H]1C (mixture of isomers) [Example 313] |  |  |  |  | ≥ 10000 | 51.9 | 79.7 | ≥ 5000 |
